This note sets out measurements from patent US9796733B2, “Imidazo-pyrazine derivatives useful as soluble guanylate cyclase activators” (Merck Sharp & Dohme Corp., priority 2014, dated 2017).

One assay has as its target T1, sGC α1/β1 heterodimer (Homo sapiens, UniProt Q02108+Q02153).
T1 construct: expressed in transfected cells; host or cells: CHO-K1 (clone #7, CHO-K1/sGC)
T1 sequence (Q02108 1-690): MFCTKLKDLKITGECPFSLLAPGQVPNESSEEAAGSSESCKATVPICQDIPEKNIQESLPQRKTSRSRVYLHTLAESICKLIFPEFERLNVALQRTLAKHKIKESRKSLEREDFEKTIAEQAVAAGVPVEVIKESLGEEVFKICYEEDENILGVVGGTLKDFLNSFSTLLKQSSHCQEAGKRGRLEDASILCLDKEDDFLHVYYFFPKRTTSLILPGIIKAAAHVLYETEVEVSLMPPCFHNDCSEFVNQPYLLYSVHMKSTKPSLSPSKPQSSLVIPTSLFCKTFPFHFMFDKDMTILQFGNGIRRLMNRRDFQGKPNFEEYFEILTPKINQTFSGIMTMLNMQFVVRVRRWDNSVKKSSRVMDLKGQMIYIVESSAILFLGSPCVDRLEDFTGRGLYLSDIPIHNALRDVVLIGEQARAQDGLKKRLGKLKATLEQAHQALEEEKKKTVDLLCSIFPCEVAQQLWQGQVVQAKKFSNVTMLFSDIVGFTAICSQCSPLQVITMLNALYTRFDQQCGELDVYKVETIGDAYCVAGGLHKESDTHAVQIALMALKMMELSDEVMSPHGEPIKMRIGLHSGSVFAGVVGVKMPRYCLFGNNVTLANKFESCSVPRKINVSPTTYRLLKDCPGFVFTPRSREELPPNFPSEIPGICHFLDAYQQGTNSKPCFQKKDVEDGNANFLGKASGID
T1 sequence (Q02153 1-619): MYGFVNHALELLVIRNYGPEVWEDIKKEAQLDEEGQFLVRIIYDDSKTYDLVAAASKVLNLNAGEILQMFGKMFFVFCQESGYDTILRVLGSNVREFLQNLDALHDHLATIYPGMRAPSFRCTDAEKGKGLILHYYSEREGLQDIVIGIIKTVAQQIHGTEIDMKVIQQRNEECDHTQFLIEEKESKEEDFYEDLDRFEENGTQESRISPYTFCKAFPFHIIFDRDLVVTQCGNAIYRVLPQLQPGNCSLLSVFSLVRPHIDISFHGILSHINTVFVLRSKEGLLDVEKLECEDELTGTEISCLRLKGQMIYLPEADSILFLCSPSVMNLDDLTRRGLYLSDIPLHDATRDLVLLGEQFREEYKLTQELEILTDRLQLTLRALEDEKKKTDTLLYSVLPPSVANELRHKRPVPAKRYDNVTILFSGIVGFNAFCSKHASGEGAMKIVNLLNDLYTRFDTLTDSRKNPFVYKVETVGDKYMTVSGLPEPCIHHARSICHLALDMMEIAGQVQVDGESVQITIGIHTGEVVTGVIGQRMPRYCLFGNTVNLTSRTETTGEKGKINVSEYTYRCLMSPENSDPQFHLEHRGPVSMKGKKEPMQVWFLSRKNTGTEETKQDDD
The experiment in a line: Cell-based sGC functional assay (CASA assay): cGMP generation in CHO-K1/sGC cells, HTRF detection. The note with it: for Emax: CHO-K1, percent activation relative to standard Compound A in CHO-K1/sGC cells, read-out: % Act.; for EC50: inflection point (IP) of cGMP generation in CHO-K1/sGC cells, 4P fit, activity expressed as percentage of Compound A. The method, boiled down: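 Stable CHO-K1/sGC cells in EBSS buffer with 5 mM MgCl2, 0.05% BSA and 0.5 mM IBMX were incubated with compound (2.5% DMSO final) ±1 μM DETA-NO for 1 hr at 37° C. cGMP was measured by HTRF. Activation is expressed as % of reference HDA Compound A maximum, with IP and max fold induction from a 4P fit.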

The subject of assay [1] is Spontaneously hypertensive rats (SHR). Put plainly: Acute efficacy in spontaneously hypertensive rats (SHR): telemetry blood pressure lowering after a single oral dose. In kind it is in vivo, rat. The method, boiled down:
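Male SHR carrying aortic telemetry implants (14-day recovery) received a single oral gavage of compound or vehicle (10% transcutol/20% Cremophor/70% water). Conscious blood pressure was sampled 30 s every 10 min and averaged hourly; change was taken against the prior-day vehicle baseline, reported as maximum peak SBP decrease at a given PO dose (mpk).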

As for `CCC1(c2ccc(F)cn2)C(=O)Nc2nc(-c3cn4ccnc4c(CCC(F)(F)C(F)(F)F)n3)nc(N)c21` (stereo not drawn) [Example 249A, 4-amino-5-ethyl-5-(5-fluoropyridin-2-yl)-2-(8-(3,3,4,4,4-pentafluorobutyl)imidazo [1,2-a]pyrazin-6-yl)-5H-pyrrolo[2,3-d]pyrimidin-6(7H)-one], on sGC α1/β1 heterodimer, the Emax is 96% and the EC50 stood at 759 nM. Besides, in assay [1] (P.O. 3.0 mpk), the “Maximum peak decrease of systolic blood pressure (SBP) in SHR, Cat.” value (from here on “Maximum peak decrease”) is listed as “B (Category B=SBP in SHRs 20-40 mmHg)”.

In the case of `CCCc1ccc(C2(C)C(=O)Nc3nc(-c4cn5ccnc5c(CCC(F)(F)C(F)(F)F)n4)nc(N)c32)cn1` (stereo not drawn) [Example 250B, 4-amino-5-methyl-2-(8-(3,3,4,4,4-pentafluorobutyl)imidazo [1,2-a]pyrazin-6-yl)-5-(6-propylpyridin-3-yl)-5H-pyrrolo[2,3-d]pyrimidin-6(7H)-one], on sGC α1/β1 heterodimer, the Emax was 87% and the EC50 was 169 nM. The “Maximum peak decrease” value in assay [1] (P.O. 3.0 mpk) is on record as “A (Category A=SBP in SHRs<20 mmHg)”.

In the case of `CC(C)c1ccc(C2(C)C(=O)Nc3nc(-c4cn5ccnc5c(CCC(F)(F)C(F)(F)F)n4)nc(N)c32)cn1` (stereo not drawn) [Example 251B, 4-amino-5-(6-isopropylpyridin-3-yl)-5-methyl-2-(8-(3,3,4,4,4-pentafluorobutyl)imidazo [1,2-a]pyrazin-6-yl)-5H-pyrrolo[2,3-d]pyrimidin-6(7H)-one], at sGC α1/β1 heterodimer, the Emax turned out to be 85% and the EC50 stood at 100 nM. Also, the “Maximum peak decrease” value in assay [1] (P.O. 3.0 mpk) was “B (Category B=SBP in SHRs 20-40 mmHg)”.

In the case of `CC1(c2ccc(C3CC3)nn2)C(=O)Nc2nc(-c3cn4ccnc4c(CCC(F)(F)C(F)(F)F)n3)nc(N)c21` (stereo not drawn) [Example 253B, 4-amino-5-(6-cyclopropylpyridazin-3-yl)-5-methyl-2-(8-(3,3,4,4,4-pentafluorobutyl)imidazo [1,2-a]pyrazin-6-yl)-5H-pyrrolo[2,3-d]pyrimidin-6(7H)-one], at sGC α1/β1 heterodimer, the Emax is 83% and the midpoint of the response, the EC50, lay at 51 nM. Also, the “Maximum peak decrease” value in assay [1] (P.O. 1.0 mpk) was “A (Category A=SBP in SHRs<20 mmHg)”.

With `CC1(c2ccc(F)cc2)C(=O)Nc2nc(-c3cn4c(Br)cnc4c(CCC(F)(F)C(F)(F)F)n3)nc(N)c21` (stereo not drawn) [Example 254A, 4-amino-2-(3-bromo-8-(3,3,4,4,4-pentafluorobutyl)imidazo [1,2-a]pyrazin-6-yl)-5-(4-fluorophenyl)-5-methyl-5H-pyrrolo[2,3-d]pyrimidin-6(7H)-one], at sGC α1/β1 heterodimer, the Emax was determined as 126% and the 50% effective concentration (EC50) was determined as 57 nM. Besides, the “Maximum peak decrease” value in assay [1] (P.O. 1.0 mpk) is “C (Category C=SBP in SHRs>40 mmHg)”.

For `CC1(c2ccc(F)cc2)C(=O)Nc2nc(-c3cn4c(Cl)cnc4c(CCC(F)(F)C(F)(F)F)n3)nc(N)c21` (stereo not drawn) [Example 255A, 4-amino-2-(3-chloro-8-(3,3,4,4,4-pentafluorobutyl)imidazo [1,2-a]pyrazin-6-yl)-5-(4-fluorophenyl)-5-methyl-5H-pyrrolo[2,3-d]pyrimidin-6(7H)-one], at sGC α1/β1 heterodimer, the Emax was 142% and the concentration giving a half-maximal response (EC50) amounted to 32 nM. The “Maximum peak decrease” value in assay [1] (P.O. 1.0 mpk) was “C (Category C=SBP in SHRs>40 mmHg)”.

On to `CC1(c2ccc(F)cc2)C(=O)Nc2nc(-c3cn4c(Br)cnc4c(CCC(F)(F)F)n3)nc(N)c21` (stereo not drawn) [Example 264A, 4-amino-2-(3-bromo-8-(3,3,3-trifluoropropyl)imidazo[1,2-a]pyrazin-6-yl)-5-(4-fluorophenyl)-5-methyl-5H-pyrrolo[2,3-d]pyrimidin-6(7H)-one], for which, on sGC α1/β1 heterodimer, the Emax was 123% and a half-maximal response (EC50) required 239 nM. Besides, in assay [1] (P.O. 1.0 mpk), the “Maximum peak decrease” value is reported as “A (Category A=SBP in SHRs<20 mmHg)”.

Take `CC1(c2ccc(Cl)cc2)C(=O)Nc2nc(-c3cn4ccnc4cn3)nc(NCCC(F)(F)C(F)(F)F)c21` (stereo not drawn) [Example 286A, 5-(4-chlorophenyl)-2-(imidazo[1,2-a]pyrazin-6-yl)-5-methyl-4-((3,3,4,4,4-pentafluorobutyl)amino)-5H-pyrrolo[2,3-d]pyrimidin-6(7H)-one]: on sGC α1/β1 heterodimer, the Emax came to 83% and it took 124 nM to reach a half-maximal effect (EC50). Further, the “Maximum peak decrease” value in assay [1] (P.O. 3.0 mpk) is on record as “A (Category A=SBP in SHRs<20 mmHg)”.

`CNc1nc(-c2cn3ccnc3c(CCC(F)(F)C(F)(F)F)n2)nc2c1C(C)(c1ccc(F)cn1)C(=O)N2` (stereo not drawn) [Example 290B, 5-(5-fluoropyridin-2-yl)-5-methyl-4-(methylamino)-2-(8-(3,3,4,4,4-pentafluorobutyl)imidazo[1,2-a]pyrazin-6-yl)-5H-pyrrolo[2,3-d]pyrimidin-6(7H)-one]: at sGC α1/β1 heterodimer, the Emax came to 106% and the midpoint of the response, the EC50, lay at 280 nM. For the same compound, the “Maximum peak decrease” value in assay [1] (P.O. 3.0 mpk) was “B (Category B=SBP in SHRs 20-40 mmHg)”.

`CN1CCN(c2nc(-c3cn4ccnc4c(CCC(F)(F)C(F)(F)F)n3)nc3c2C(C)(c2ccc(F)cc2)C(=O)N3)CC1` (stereo not drawn) [Example 311A, 5-(4-fluorophenyl)-5-methyl-4-(4-methylpiperazin-1-yl)-2-(8-(3,3,4,4,4-pentafluorobutyl)imidazo[1,2-a]pyrazin-6-yl)-5H-pyrrolo[2,3-d]pyrimidin-6(7H)-one]: at sGC α1/β1 heterodimer, the Emax came out at 92% and the EC50 is 29 nM. Also, the “Maximum peak decrease” value in assay [1] (P.O. 0.3 mpk) is given as “A (Category A=SBP in SHRs<20 mmHg)”.

As to `CCc1nc(-c2nc(N)c3c(n2)NC(=O)C3(C)c2ccc(Cl)c(F)c2)cn2ccnc12` (stereo not drawn) [Example 314B, 4-amino-5-(4-chloro-3-fluorophenyl)-2-(8-ethylimidazo[1,2-a]pyrazin-6-yl)-5-methyl-5H-pyrrolo[2,3-d]pyrimidin-6(7H)-one], at sGC α1/β1 heterodimer, the Emax was 104% and a half-maximal response (EC50) required 434 nM. Moreover, in assay [1] (P.O. 3.0 mpk), the “Maximum peak decrease” value is listed as “B (Category B=SBP in SHRs 20-40 mmHg)”.

In the case of `CC(C)Cc1nc(-c2nc(N)c3c(n2)NC(=O)C3(c2ccc(Cl)c(F)c2)C2CC2)cn2ccnc12` (stereo not drawn) [Example 315A, 4-amino-5-(4-chloro-3-fluorophenyl)-5-cyclopropyl-2-(8-isobutylimidazo[1,2-a]pyrazin-6-yl)-5H-pyrrolo[2,3-d]pyrimidin-6(7H)-one], on sGC α1/β1 heterodimer, the Emax is 113% and the EC50 is 119 nM. In addition, the “Maximum peak decrease” value in assay [1] (P.O. 3.0 mpk) is listed as “B (Category B=SBP in SHRs 20-40 mmHg)”.

Take `Nc1nc(-c2cn3ccnc3c(CCCC(F)(F)F)n2)nc2c1C(c1ccc(Cl)cc1)(C1CC1)C(=O)N2` (stereo not drawn) [Example 316B, 4-amino-5-(4-chlorophenyl)-5-cyclopropyl-2-(8-(4,4,4-trifluorobutyl)imidazo[1,2-a]pyrazin-6-yl)-5H-pyrrolo[2,3-d]pyrimidin-6(7H)-one]: at sGC α1/β1 heterodimer, the Emax stood at 156% and the EC50 was 29 nM. Moreover, the “Maximum peak decrease” value in assay [1] (P.O. 0.3 mpk) is “B (Category B=SBP in SHRs 20-40 mmHg)”.

With `Nc1nc(-c2cn3ccnc3c(CCCC(F)(F)F)n2)nc2c1C(c1ccc(F)c(F)c1)(C1CC1)C(=O)N2` (stereo not drawn) [Example 317A, 4-amino-5-cyclopropyl-5-(3,4-difluorophenyl)-2-(8-(4,4,4-trifluorobutyl)imidazo[1,2-a]pyrazin-6-yl)-5H-pyrrolo[2,3-d]pyrimidin-6(7H)-one], at sGC α1/β1 heterodimer, the Emax is 156% and the EC50 amounted to 75 nM. The “Maximum peak decrease” value in assay [1] (P.O. 0.1 mpk) was “B (Category B=SBP in SHRs 20-40 mmHg)”.

Broadly, the EC50 is the concentration giving half of the maximal effect. High values mean a less potent agent, low ones a more potent agent.
